Experimental data: ChEMBL document CHEMBL1671687, “Enhancement of biofilm formation by subinhibitory concentrations of macrolides in icaADBC-positive and -negative clinical isolates of Staphylococcus epidermidis” (2010)
The source made the active and inactive calls. The calls are words filed in the database; no cut-off is given here.

Legend:
[1] = tested on: Staphylococcus epidermidis; assay: Antimicrobial activity against Staphylococcus epidermidis SW029 expressing icaA gene; type: functional
[2] = tested on: Staphylococcus epidermidis; assay: Antimicrobial activity against Staphylococcus epidermidis SW036; type: functional
[3] = tested on: Staphylococcus epidermidis; assay: Antimicrobial activity against Staphylococcus epidermidis SW036 at 1/1024 X MIC; type: functional, organism-based
[4] = tested on: Staphylococcus epidermidis; assay: Antimicrobial activity against Staphylococcus epidermidis SW029 expressing icaA gene assessed as enhancement of biofilm formation after 18 hrs by microtiter plate assay; type: functional
[5] = tested on: Staphylococcus epidermidis; assay: Antimicrobial activity against Staphylococcus epidermidis SW036 assessed as enhancement of biofilm formation after 18 hrs by microtiter plate assay; type: functional
[6] = tested on: Staphylococcus epidermidis; assay: Upregulation of icaA gene expression in Staphylococcus epidermidis SW029 at 8 ug/ml after 6 hrs by RT-PCR relative to untreated control; type: functional
[7] = tested on: Staphylococcus epidermidis; assay: Upregulation of atlE gene expression in Staphylococcus epidermidis SW029 at 8 ug/ml after 6 hrs by RT-PCR relative to untreated control; type: functional
[8] = tested on: Staphylococcus epidermidis; assay: Upregulation of fruA gene expression in Staphylococcus epidermidis SW029 at 8 ug/ml after 6 hrs by RT-PCR relative to untreated control; type: functional
[9] = tested on: Staphylococcus epidermidis; assay: Upregulation of pyrR gene expression in Staphylococcus epidermidis SW029 at 8 ug/ml after 6 hrs by RT-PCR relative to untreated control; type: functional
[10] = tested on: Staphylococcus epidermidis; assay: Upregulation of sarA gene expression in Staphylococcus epidermidis SW029 at 8 ug/ml after 6 hrs by RT-PCR relative to untreated control; type: functional
[11] = tested on: Staphylococcus epidermidis; assay: Upregulation of sigB gene expression in Staphylococcus epidermidis SW029 at 8 ug/ml after 6 hrs by RT-PCR relative to untreated control; type: functional
[12] = tested on: Staphylococcus epidermidis; assay: Upregulation of icaA gene expression in Staphylococcus epidermidis SW029 at 8 ug/ml after 24 hrs by RT-PCR relative to untreated control; type: functional
[13] = tested on: Staphylococcus epidermidis; assay: Upregulation of atlE gene expression in Staphylococcus epidermidis SW029 at 8 ug/ml after 24 hrs by RT-PCR relative to untreated control; type: functional
[14] = tested on: Staphylococcus epidermidis; assay: Upregulation of sarA gene expression in Staphylococcus epidermidis SW029 at 8 ug/ml after 24 hrs by RT-PCR relative to untreated control; type: functional
[15] = tested on: Staphylococcus epidermidis; assay: Downregulation of sigB gene expression in Staphylococcus epidermidis SW029 at 8 ug/ml after 24 hrs by RT-PCR relative to untreated control; type: functional
[16] = tested on: Staphylococcus epidermidis; assay: Upregulation of atlE gene expression in Staphylococcus epidermidis SW036 at 8 ug/ml after 6 hrs by RT-PCR relative to untreated control; type: functional
[17] = tested on: Staphylococcus epidermidis; assay: Upregulation of fruA gene expression in Staphylococcus epidermidis SW036 at 8 ug/ml after 6 hrs by RT-PCR relative to untreated control; type: functional
[18] = tested on: Staphylococcus epidermidis; assay: Upregulation of pyrR gene expression in Staphylococcus epidermidis SW036 at 8 ug/ml after 6 hrs by RT-PCR relative to untreated control; type: functional
[19] = tested on: Staphylococcus epidermidis; assay: Upregulation of sarA gene expression in Staphylococcus epidermidis SW036 at 8 ug/ml after 6 hrs by RT-PCR relative to untreated control; type: functional
[20] = tested on: Staphylococcus epidermidis; assay: Upregulation of sigB gene expression in Staphylococcus epidermidis SW036 at 8 ug/ml after 6 hrs by RT-PCR relative to untreated control; type: functional
[21] = tested on: Staphylococcus epidermidis; assay: Enhancement of biofilm formation Staphylococcus epidermidis ATCC 35984 expressing icaA gene at 1/4 X MIC by microtiter plate assay; type: functional
[22] = tested on: Staphylococcus epidermidis; assay: Enhancement of biofilm formation Staphylococcus epidermidis SW027 expressing icaA gene at 1/4 X MIC by microtiter plate assay; type: functional
[23] = tested on: Staphylococcus epidermidis; assay: Enhancement of biofilm formation Staphylococcus epidermidis SW029 expressing icaA gene at 1/4 X MIC by microtiter plate assay; type: functional
[24] = tested on: Staphylococcus epidermidis; assay: Enhancement of biofilm formation Staphylococcus epidermidis SW032 expressing icaA gene at 1/4 X MIC by microtiter plate assay; type: functional
[25] = tested on: Staphylococcus epidermidis; assay: Enhancement of biofilm formation Staphylococcus epidermidis SW045 expressing icaA gene at 1/4 X MIC by microtiter plate assay; type: functional
[26] = tested on: Staphylococcus epidermidis; assay: Enhancement of biofilm formation Staphylococcus epidermidis SW058 expressing icaA gene at 1/4 X MIC by microtiter plate assay; type: functional
[27] = tested on: Staphylococcus epidermidis; assay: Enhancement of biofilm formation Staphylococcus epidermidis SW061 expressing icaA gene at 1/4 X MIC by microtiter plate assay; type: functional
[28] = tested on: Staphylococcus epidermidis; assay: Enhancement of biofilm formation Staphylococcus epidermidis SW067 expressing icaA gene at 1/4 X MIC by microtiter plate assay; type: functional
[29] = tested on: Staphylococcus epidermidis; assay: Enhancement of biofilm formation Staphylococcus epidermidis SW085 expressing icaA gene at 1/4 X MIC by microtiter plate assay; type: functional
[30] = tested on: Staphylococcus epidermidis; assay: Enhancement of biofilm formation Staphylococcus epidermidis SW098 expressing icaA gene at 1/4 X MIC by microtiter plate assay; type: functional
[31] = tested on: Staphylococcus epidermidis; assay: Enhancement of biofilm formation Staphylococcus epidermidis SW104 expressing icaA gene at 1/4 X MIC by microtiter plate assay; type: functional
[32] = tested on: Staphylococcus epidermidis; assay: Enhancement of biofilm formation Staphylococcus epidermidis SW126 expressing icaA gene at 1/4 X MIC by microtiter plate assay; type: functional
[33] = tested on: Staphylococcus epidermidis; assay: Enhancement of biofilm formation Staphylococcus epidermidis SW015 at 1/4 X MIC by microtiter plate assay; type: functional
[34] = tested on: Staphylococcus epidermidis; assay: Enhancement of biofilm formation Staphylococcus epidermidis SW021 at 1/4 X MIC by microtiter plate assay; type: functional
[35] = tested on: Staphylococcus epidermidis; assay: Enhancement of biofilm formation Staphylococcus epidermidis SW036 at 1/4 X MIC by microtiter plate assay; type: functional
[36] = tested on: Staphylococcus epidermidis; assay: Enhancement of biofilm formation Staphylococcus epidermidis SW070 at 1/4 X MIC by microtiter plate assay; type: functional
[37] = tested on: Staphylococcus epidermidis; assay: Enhancement of biofilm formation Staphylococcus epidermidis SW071 at 1/4 X MIC by microtiter plate assay; type: functional
[38] = tested on: Staphylococcus epidermidis; assay: Enhancement of biofilm formation Staphylococcus epidermidis SW082 at 1/4 X MIC by microtiter plate assay; type: functional
[39] = tested on: Staphylococcus epidermidis; assay: Enhancement of biofilm formation Staphylococcus epidermidis SW088 at 1/4 X MIC by microtiter plate assay; type: functional
[40] = tested on: Staphylococcus epidermidis; assay: Enhancement of biofilm formation Staphylococcus epidermidis SW099 at 1/4 X MIC by microtiter plate assay; type: functional
[41] = tested on: Staphylococcus epidermidis; assay: Enhancement of biofilm formation Staphylococcus epidermidis SW115 at 1/4 X MIC by microtiter plate assay; type: functional
[42] = tested on: Staphylococcus epidermidis; assay: Enhancement of biofilm formation Staphylococcus epidermidis SW120 at 1/4 X MIC by microtiter plate assay; type: functional
[43] = tested on: Staphylococcus epidermidis; assay: Antimicrobial activity against Staphylococcus epidermidis SW029 expressing icaA gene assessed as formation of multilayer biofilms at 48 hrs by SEM; type: functional, organism-based
[44] = tested on: Staphylococcus epidermidis; assay: Antimicrobial activity against Staphylococcus epidermidis SW029 expressing icaA gene assessed as increased biofilm formation at 6 to 12 hrs by CLSM; type: functional, organism-based
[45] = tested on: Staphylococcus epidermidis; assay: Effect on polysaccharide secretion in Staphylococcus epidermidis SW029 expressing icaA gene at 12 hrs by SEM; type: functional, organism-based
[46] = tested on: Staphylococcus epidermidis; assay: Antimicrobial activity against compound pretreated Staphylococcus epidermidis assessed as biofilm formation at 1/4 X MIC relative to untreated control; type: functional
[47] = tested on: Staphylococcus epidermidis; assay: Antimicrobial activity against Staphylococcus epidermidis lacking compound-induced biofilms; type: functional
[48] = tested on: Staphylococcus epidermidis; assay: Antimicrobial activity against Staphylococcus epidermidis lacking compound-induced biofilms assessed as biofilm formation at 1/4 X MIC relative to untreated control; type: functional
[49] = tested on: Staphylococcus epidermidis; assay: Antimicrobial activity against compound pretreated Staphylococcus epidermidis biofilms; type: functional

MIC [1]: > 128 µg/mL | MIC [2]: > 128 µg/mL | MIC [47]: ≥ 16 µg/mL | MIC [49]: ≥ 32 µg/mL
Compound: CC[C@H]1OC(=O)[C@H](C)[C@@H](O[C@H]2C[C@@](C)(OC)[C@@H](O)[C@H](C)O2)[C@H](C)[C@@H](O[C@@H]2O[C@H](C)C[C@H](N(C)C)[C@H]2O)[C@](C)(O)C[C@@H](C)C(=O)[C@H](C)[C@@H](O)[C@]1(C)O [ERYTHROMYCIN]
Activity [3]: Active | Activity [4]: 173% | Activity [5]: 100% | fold change (FC) [6]: 1.2 | fold change (FC) [7]: 6.2 | fold change (FC) [8]: 4.5 | fold change (FC) [9]: 3.7 | fold change (FC) [10]: 1.7 | fold change (FC) [11]: 2 | fold change (FC) [12]: 2.8 | fold change (FC) [13]: 2.4 | fold change (FC) [14]: 6.9 | fold change (FC) [15]: 0.6 | fold change (FC) [16]: 1.8 | fold change (FC) [17]: 2.4 | fold change (FC) [18]: 2.4 | fold change (FC) [19]: 1.7 | fold change (FC) [20]: 1.4 | Activity [21]: 7% | Activity [22]: 60.4% | Activity [23]: 159.6% | Activity [24]: 78.5% | Activity [25]: 47.2% | Activity [26]: 37.9% | Activity [27]: 50.8% | Activity [28]: 150.3% | Activity [29]: 297.8% | Activity [30]: 93.9% | Activity [31]: 63.2% | Activity [32]: 56.1% | Activity [33]: 87.8% | Activity [34]: 34.7% | Activity [35]: 284.3% | Activity [36]: 172.2% | Activity [37]: 230.4% | Activity [38]: 58.7% | Activity [39]: 163.1% | Activity [40]: 55.7% | Activity [41]: 166.8% | Activity [42]: 69.4% | Activity [43]: inactive | Activity [44]: inactive | Activity [45]: inactive | Ratio [46]: 2.51 | Ratio [48]: 1.02
